Reference: ChEMBL document CHEMBL4507303, “Data for DCP probe TP-004” (2021)

Experiments:
[1] = molecular target: Phosphatidylinositol 5-phosphate 4-kinase type-2 gamma (Homo sapiens) (UniProt Q8TBX8); details: Compound concentration 1000.0 nM
[2] = molecular target: Testis-specific serine/threonine-protein kinase 3 (Homo sapiens) (UniProt Q96PN8); details: Compound concentration 1000.0 nM
[3] = molecular target: Calcium/calmodulin-dependent protein kinase type II subunit beta (Homo sapiens) (UniProt Q13554); details: Compound concentration 1000.0 nM
[4] = molecular target: Serine/threonine-protein kinase Sgk3 (Homo sapiens) (UniProt Q96BR1); details: Compound concentration 1000.0 nM
Chain of Serine/threonine-protein kinase Sgk3 (Homo sapiens) (Q96BR1 whole entry): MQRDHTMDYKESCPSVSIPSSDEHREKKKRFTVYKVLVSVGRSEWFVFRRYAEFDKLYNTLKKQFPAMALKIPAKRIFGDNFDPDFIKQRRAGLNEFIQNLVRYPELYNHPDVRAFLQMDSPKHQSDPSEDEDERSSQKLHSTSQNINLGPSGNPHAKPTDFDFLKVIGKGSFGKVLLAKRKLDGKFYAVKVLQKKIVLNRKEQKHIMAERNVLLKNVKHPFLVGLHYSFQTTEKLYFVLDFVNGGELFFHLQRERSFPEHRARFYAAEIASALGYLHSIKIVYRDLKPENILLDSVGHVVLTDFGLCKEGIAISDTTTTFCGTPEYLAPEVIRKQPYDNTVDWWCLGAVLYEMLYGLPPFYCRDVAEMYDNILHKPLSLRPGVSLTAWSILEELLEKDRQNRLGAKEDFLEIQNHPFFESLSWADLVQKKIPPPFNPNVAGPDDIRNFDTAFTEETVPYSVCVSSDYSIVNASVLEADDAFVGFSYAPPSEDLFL

[5] = molecular target: Tyrosine-protein kinase TXK (Homo sapiens) (UniProt P42681); details: Compound concentration 1000.0 nM
[6] = molecular target: Leucine-rich repeat serine/threonine-protein kinase 2 (Homo sapiens) (UniProt Q5S007); details: Compound concentration 1000.0 nM
Chain of Leucine-rich repeat serine/threonine-protein kinase 2 (Homo sapiens) (Q5S007 whole entry): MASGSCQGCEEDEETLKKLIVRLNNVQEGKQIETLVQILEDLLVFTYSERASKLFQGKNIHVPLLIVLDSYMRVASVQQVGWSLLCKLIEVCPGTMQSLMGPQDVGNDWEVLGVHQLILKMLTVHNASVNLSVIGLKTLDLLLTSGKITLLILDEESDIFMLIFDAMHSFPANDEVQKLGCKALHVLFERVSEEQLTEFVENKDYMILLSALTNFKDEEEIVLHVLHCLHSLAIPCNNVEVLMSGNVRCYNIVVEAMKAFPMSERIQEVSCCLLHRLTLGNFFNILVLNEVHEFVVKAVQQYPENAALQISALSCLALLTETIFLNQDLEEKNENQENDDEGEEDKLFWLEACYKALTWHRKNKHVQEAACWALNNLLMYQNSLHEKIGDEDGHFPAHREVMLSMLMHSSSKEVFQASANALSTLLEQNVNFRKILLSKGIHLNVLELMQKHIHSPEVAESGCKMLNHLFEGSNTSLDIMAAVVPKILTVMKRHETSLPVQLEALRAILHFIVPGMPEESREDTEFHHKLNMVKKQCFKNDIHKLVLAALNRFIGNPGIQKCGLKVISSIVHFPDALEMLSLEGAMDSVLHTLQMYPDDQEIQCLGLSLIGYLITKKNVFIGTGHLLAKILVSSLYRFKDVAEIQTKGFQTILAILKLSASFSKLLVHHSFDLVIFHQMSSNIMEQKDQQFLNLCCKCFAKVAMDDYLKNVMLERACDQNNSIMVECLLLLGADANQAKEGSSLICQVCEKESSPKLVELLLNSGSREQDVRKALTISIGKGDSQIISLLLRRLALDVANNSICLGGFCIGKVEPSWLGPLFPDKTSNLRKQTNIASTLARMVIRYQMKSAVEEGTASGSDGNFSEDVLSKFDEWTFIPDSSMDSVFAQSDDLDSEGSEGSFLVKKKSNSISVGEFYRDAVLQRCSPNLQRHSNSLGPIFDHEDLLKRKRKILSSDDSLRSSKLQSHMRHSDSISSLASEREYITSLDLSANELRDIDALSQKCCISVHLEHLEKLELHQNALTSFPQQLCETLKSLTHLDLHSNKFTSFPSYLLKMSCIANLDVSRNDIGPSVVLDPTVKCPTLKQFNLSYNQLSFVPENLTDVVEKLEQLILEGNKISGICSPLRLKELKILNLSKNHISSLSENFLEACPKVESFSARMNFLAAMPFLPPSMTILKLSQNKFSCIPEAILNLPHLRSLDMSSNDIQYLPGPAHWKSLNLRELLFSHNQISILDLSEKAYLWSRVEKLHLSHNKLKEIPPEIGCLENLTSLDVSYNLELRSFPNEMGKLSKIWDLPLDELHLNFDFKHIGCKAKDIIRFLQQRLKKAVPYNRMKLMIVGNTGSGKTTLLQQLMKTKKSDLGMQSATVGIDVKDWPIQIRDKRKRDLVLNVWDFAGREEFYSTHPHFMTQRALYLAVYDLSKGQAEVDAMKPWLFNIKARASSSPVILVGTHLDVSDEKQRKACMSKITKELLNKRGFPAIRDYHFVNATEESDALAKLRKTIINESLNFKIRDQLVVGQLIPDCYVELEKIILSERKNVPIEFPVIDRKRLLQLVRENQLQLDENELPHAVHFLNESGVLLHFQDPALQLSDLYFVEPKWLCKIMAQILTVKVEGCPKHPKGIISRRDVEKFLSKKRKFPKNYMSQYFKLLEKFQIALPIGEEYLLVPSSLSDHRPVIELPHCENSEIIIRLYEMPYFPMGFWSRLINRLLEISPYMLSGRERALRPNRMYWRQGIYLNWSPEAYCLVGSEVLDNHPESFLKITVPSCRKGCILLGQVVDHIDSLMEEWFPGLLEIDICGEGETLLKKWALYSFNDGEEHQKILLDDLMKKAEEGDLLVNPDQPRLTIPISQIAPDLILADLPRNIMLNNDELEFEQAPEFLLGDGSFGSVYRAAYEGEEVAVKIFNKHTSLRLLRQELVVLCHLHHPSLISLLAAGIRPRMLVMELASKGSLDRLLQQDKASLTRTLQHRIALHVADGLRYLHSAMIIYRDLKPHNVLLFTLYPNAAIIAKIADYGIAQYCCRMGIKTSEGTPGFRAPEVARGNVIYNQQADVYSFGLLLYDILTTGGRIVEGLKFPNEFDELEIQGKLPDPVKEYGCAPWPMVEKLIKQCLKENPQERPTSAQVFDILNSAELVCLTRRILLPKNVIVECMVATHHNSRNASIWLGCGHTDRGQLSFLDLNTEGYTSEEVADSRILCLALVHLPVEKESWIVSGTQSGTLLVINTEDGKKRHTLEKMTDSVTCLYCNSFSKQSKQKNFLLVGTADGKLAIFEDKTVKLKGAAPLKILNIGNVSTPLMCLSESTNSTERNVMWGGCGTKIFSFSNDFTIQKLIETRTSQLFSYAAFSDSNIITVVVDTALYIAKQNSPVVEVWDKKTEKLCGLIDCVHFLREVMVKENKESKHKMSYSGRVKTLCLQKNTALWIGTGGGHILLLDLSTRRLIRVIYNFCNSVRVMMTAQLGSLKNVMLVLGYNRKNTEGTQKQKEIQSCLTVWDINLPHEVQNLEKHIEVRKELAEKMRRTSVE

[7] = system: Hepatocyte growth factor receptor (Homo sapiens), P08581 [Y1235D]; details: Compound concentration 1000.0 nM
[8] = molecular target: Tyrosine-protein kinase BTK (Homo sapiens) (UniProt Q06187); details: Compound concentration 1000.0 nM
[9] = molecular target: RAC-beta serine/threonine-protein kinase (Homo sapiens) (UniProt P31751); details: Compound concentration 1000.0 nM
[10] = organism: Rattus norvegicus; details: Compound concentration 10.0 uM
[11] = molecular target: Mitogen-activated protein kinase 8 (Homo sapiens) (UniProt P45983); details: Compound concentration 1000.0 nM
[12] = system: Epidermal growth factor receptor (Homo sapiens), P00533 [UNDEFINED MUTATION]; details: Compound concentration 1000.0 nM
[13] = molecular target: Serine/threonine-protein kinase haspin (Homo sapiens) (UniProt Q8TF76); details: Compound concentration 1000.0 nM
[14] = molecular target: Ribosomal protein S6 kinase alpha-4 (Homo sapiens) (UniProt O75676); details: Compound concentration 1000.0 nM
[15] = system: Tyrosine-protein kinase ABL1 (Homo sapiens), P00519 [H396P]; details: Compound concentration 1000.0 nM
[16] = molecular target: Insulin receptor-related protein (Homo sapiens) (UniProt P14616); details: Compound concentration 1000.0 nM
[17] = molecular target: Mitogen-activated protein kinase kinase kinase 12 (Homo sapiens) (UniProt Q12852); details: Compound concentration 1000.0 nM
[18] = system: Tyrosine-protein kinase ABL1 (Homo sapiens), P00519 [F317I]; details: Compound concentration 1000.0 nM
[19] = molecular target: Dual specificity testis-specific protein kinase 1 (Homo sapiens) (UniProt Q15569); details: Compound concentration 1000.0 nM
[20] = molecular target: Fibroblast growth factor receptor 2 (Homo sapiens) (UniProt P21802); details: Compound concentration 1000.0 nM
[21] = system: Receptor-type tyrosine-protein kinase FLT3 (Homo sapiens), P36888 [UNDEFINED MUTATION]; details: Compound concentration 1000.0 nM
[22] = molecular target: D(1A) dopamine receptor (Homo sapiens) (UniProt P21728); details: Compound concentration 10.0 uM
Chain of D(1A) dopamine receptor (Homo sapiens) (P21728 whole entry): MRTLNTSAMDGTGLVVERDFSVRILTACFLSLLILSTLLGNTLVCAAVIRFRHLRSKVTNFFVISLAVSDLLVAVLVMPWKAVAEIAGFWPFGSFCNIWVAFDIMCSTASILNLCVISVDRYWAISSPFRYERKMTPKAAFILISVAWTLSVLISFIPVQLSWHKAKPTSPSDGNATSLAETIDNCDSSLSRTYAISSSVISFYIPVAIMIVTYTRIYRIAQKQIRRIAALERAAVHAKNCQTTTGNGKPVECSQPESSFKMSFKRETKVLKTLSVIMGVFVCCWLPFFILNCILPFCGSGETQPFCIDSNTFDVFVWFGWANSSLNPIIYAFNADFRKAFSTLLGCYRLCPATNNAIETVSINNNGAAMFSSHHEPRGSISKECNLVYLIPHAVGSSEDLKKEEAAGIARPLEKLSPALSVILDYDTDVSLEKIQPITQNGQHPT

[23] = molecular target: Serine/threonine-protein kinase MRCK alpha (Homo sapiens) (UniProt Q5VT25); details: Compound concentration 1000.0 nM
[24] = molecular target: Rho-associated protein kinase 1 (Homo sapiens) (UniProt Q13464); details: Compound concentration 1000.0 nM
[25] = molecular target: Mitogen-activated protein kinase kinase kinase 7 (Homo sapiens) (UniProt O43318); details: Compound concentration 1000.0 nM
[26] = molecular target: Ribosomal protein S6 kinase alpha-3 (Homo sapiens) (UniProt P51812); details: Compound concentration 1000.0 nM
[27] = molecular target: Ephrin type-A receptor 6 (Homo sapiens) (UniProt Q9UF33); details: Compound concentration 1000.0 nM
Chain of Ephrin type-A receptor 6 (Homo sapiens) (Q9UF33 whole entry): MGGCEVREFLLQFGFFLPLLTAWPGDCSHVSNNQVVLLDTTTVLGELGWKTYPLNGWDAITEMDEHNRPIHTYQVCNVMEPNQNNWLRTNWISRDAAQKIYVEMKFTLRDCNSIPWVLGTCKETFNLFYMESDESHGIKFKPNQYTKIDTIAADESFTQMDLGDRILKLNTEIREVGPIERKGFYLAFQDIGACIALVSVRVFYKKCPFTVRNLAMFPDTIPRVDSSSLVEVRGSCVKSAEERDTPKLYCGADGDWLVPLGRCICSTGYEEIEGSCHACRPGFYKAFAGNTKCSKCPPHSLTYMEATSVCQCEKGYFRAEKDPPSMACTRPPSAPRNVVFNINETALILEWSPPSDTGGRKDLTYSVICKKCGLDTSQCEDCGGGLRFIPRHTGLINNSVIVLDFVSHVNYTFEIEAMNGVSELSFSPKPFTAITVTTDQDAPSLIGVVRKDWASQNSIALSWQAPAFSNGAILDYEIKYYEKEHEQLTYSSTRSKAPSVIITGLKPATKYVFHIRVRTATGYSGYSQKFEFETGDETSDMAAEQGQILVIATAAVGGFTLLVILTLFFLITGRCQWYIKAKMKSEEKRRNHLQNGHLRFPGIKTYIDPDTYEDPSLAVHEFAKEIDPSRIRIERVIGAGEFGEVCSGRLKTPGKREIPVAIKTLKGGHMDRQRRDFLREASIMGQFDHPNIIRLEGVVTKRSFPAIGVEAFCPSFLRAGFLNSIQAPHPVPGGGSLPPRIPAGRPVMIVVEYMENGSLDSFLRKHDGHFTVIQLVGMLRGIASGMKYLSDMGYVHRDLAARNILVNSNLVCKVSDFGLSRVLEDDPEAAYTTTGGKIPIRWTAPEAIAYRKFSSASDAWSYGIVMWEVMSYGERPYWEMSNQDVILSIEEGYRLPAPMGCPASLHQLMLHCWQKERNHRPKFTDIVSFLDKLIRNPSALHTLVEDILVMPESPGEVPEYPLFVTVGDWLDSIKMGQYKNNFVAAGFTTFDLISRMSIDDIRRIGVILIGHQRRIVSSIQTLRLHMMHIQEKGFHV

[28] = molecular target: Alpha-1A adrenergic receptor (Homo sapiens) (UniProt P35348); details: Compound concentration 10.0 uM
[29] = molecular target: Serine/threonine-protein kinase Chk2 (Homo sapiens) (UniProt O96017); details: Compound concentration 1000.0 nM
[30] = molecular target: Mitogen-activated protein kinase kinase kinase 10 (Homo sapiens) (UniProt Q02779); details: Compound concentration 1000.0 nM
[31] = system: Mast/stem cell growth factor receptor Kit (Homo sapiens), P10721 [L576P]; details: Compound concentration 1000.0 nM
[32] = system: Proto-oncogene tyrosine-protein kinase receptor Ret (Homo sapiens), P07949 [V804M]; details: Compound concentration 1000.0 nM
[33] = molecular target: TGF-beta receptor type-1 (Homo sapiens) (UniProt P36897); details: Compound concentration 1000.0 nM
[34] = molecular target: AP2-associated protein kinase 1 (Homo sapiens) (UniProt Q2M2I8); details: Compound concentration 1000.0 nM
[35] = molecular target: Serine/threonine-protein kinase PLK1 (Homo sapiens) (UniProt P53350); details: Compound concentration 1000.0 nM
[36] = molecular target: Discoidin domain-containing receptor 2 (Homo sapiens) (UniProt Q16832); details: Compound concentration 1000.0 nM
[37] = molecular target: Casein kinase I isoform delta (Homo sapiens) (UniProt P48730); details: Compound concentration 1000.0 nM
[38] = molecular target: Serine/threonine-protein kinase Chk1 (Homo sapiens) (UniProt O14757); details: Compound concentration 1000.0 nM
Chain of Serine/threonine-protein kinase Chk1 (Homo sapiens) (O14757 whole entry): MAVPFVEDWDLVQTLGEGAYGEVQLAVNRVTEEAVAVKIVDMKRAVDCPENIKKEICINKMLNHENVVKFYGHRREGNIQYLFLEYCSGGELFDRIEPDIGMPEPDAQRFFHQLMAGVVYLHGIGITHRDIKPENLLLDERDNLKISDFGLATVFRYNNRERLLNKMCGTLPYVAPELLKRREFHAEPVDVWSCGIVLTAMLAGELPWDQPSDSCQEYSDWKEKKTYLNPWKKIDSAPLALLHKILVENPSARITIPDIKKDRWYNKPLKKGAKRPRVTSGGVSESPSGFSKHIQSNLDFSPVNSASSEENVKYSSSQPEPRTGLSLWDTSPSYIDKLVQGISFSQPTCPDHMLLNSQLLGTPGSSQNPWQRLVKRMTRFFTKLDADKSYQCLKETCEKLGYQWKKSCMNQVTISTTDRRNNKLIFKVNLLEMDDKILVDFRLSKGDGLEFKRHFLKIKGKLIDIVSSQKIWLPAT

[39] = system: Tyrosine-protein kinase ABL1 (Homo sapiens), P00519 [H396P]; details: Compound concentration 1000.0 nM; remark: listed apart in the source
[40] = molecular target: Homeodomain-interacting protein kinase 1 (Homo sapiens) (UniProt Q86Z02); details: Compound concentration 1000.0 nM
[41] = molecular target: Dual specificity protein kinase CLK4 (Homo sapiens) (UniProt Q9HAZ1); details: Compound concentration 1000.0 nM
[42] = molecular target: Kappa-type opioid receptor (Homo sapiens) (UniProt P41145); details: Compound concentration 10.0 uM
[43] = molecular target: Tyrosine-protein kinase FRK (Homo sapiens) (UniProt P42685); details: Compound concentration 1000.0 nM
[44] = molecular target: Serine/threonine-protein kinase ULK2 (Homo sapiens) (UniProt Q8IYT8); details: Compound concentration 1000.0 nM
[45] = molecular target: Serine/threonine-protein kinase N2 (Homo sapiens) (UniProt Q16513); details: Compound concentration 1000.0 nM

Cc1nc(N2CC[C@@H](O)C2)ncc1-c1cc(C(F)(F)F)cc2[nH]ncc12 [TP-004]
residual activity [1]: 100%
residual activity [2]: 100%
residual activity [3]: 100%
residual activity [4]: 70%
residual activity [5]: 100%
residual activity [6]: 58%
residual activity [7]: 81%
residual activity [8]: 63%
residual activity [9]: 87%
inhibition [10]: 1.57%
residual activity [11]: 100%
residual activity [12]: 90%
residual activity [13]: 66%
residual activity [14]: 68%
residual activity [15]: 61%
residual activity [16]: 87%
residual activity [17]: 99%
residual activity [18]: 73%
residual activity [19]: 94%
residual activity [20]: 100%
residual activity [21]: 54%
inhibition [22]: 11.1%
residual activity [23]: 100%
residual activity [24]: 91%
residual activity [25]: 89%
residual activity [26]: 48%
residual activity [27]: 100%
inhibition [28]: 15.7%
residual activity [29]: 96%
residual activity [30]: 100%
residual activity [31]: 69%
residual activity [32]: 96%
residual activity [33]: 100%
residual activity [34]: 100%
residual activity [35]: 64%
residual activity [36]: 75%
residual activity [37]: 95%
residual activity [38]: 100%
residual activity [39]: 77%
residual activity [40]: 74%
residual activity [41]: 92%
inhibition [42]: 7.69%
residual activity [43]: 98%
residual activity [44]: 66%
residual activity [45]: 72%
